In patent publication US20260344668A1, “PHENYLPYRAZOLE COMPOUND, AND PLANT DISEASE CONTROL METHOD” (priority 2022, published 2026):

What was measured:
[1] = test system: soybean rust fungus (Phakopsora pachyrhizi) having an amino acid substitution of F129L in a mitochondrial cytochrome b protein; assay: Test Example 7 Control Test Against Soybean Rust (leaf disk); format: in vivo; settings: 200 ppm, 10 μL per soybean leaf disk (cultivar: Kurosengoku), inoculated after 1 day
Outline: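 Soybean (Kurosengoku) leaf disks of 1 cm on 1.2% agar were sprayed with compound in a DMSO/xylene/Sorpol emulsion diluted in water to a prescribed concentration. One day later they were spray-inoculated with F129L cytochrome b mutant P. pachyrhizi spores (1.0×10^5/mL) and kept at 23 °C, 60% humidity, 6 h light, for about 13 days. Lesion area was compared with DMSO-treated disks.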

Phakopsora pachyrhizi [2] = assay: Test Example 15 Control Test Against Soybean Rust Fungus (spore germination, 96 well titer plate); format: cell-based; settings: treatment concentration 1 ppm, 23° C., several hours
Outline: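 Compound in DMSO was added to an aqueous Phakopsora pachyrhizi spore suspension (1.0×10^4/mL) and incubated several hours at 23° C. Germinated spores were counted relative to DMSO-only wells.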

Cochliobolus miyabeanus = assay: Test Example 6 Control Test Against Rice Brown Spot Fungus (96 well titer plate growth); format: cell-based; settings: 1 μL of 150 ppm DMSO solution + 150 μL YB liquid medium, 23° C., 3 days, absorbance at 550 nm
Description: (§1) The term of “non-treated well” in Test Example 4, Test Example 5, and Test Example 6 represents a well wherein a test was carried out under the same conditions as those described in each Test Example except for dispensing DMSO instead of a diluted solution with DMSO comprising the Present compound. Also, the term of “non-treated” in Test Examples 15 to 17 represents a test which was carried out under the same conditions as those described in each Test Example except for dispensing DMSO instead of a diluted solution with DMSO comprising the Present compound. Also, the term of “non-treated leaf disk” in Test Example 7 represents a leaf disk wherein a test was carried out under the same conditions as those described in the Test Example except for dispensing DMSO instead of a diluted solution with DMSO comprising the Present compound. Also, the term of “non-treated” in Test Example 10 and Test Example 11 means that a diluted solution with water of a formulation comprising the Present compound was not sprayed.
Each of the Present compound 17, 33, 36, 37, 39, 40, 41, 42, 43, 44, 48, 49, 50, 51, 52, 53, 62, 68, 69, 70, 71, 76, 77, 79, 80, 81, 82, 83, 84, or 97 was diluted with DMSO to obtain a diluted solution containing 150 ppm of each compound, and 1 μL of the diluted solution was dispensed into a titer plate (96 well), and thereto was then dispensed 150 μL of a YB liquid medium to which spores of Cochliobolus miyabeanus were inoculated in advance. This plate was cultured at 23° C. for 3 days, thereby allowing Cochliobolus miyabeanus to undergo proliferation, and the absorbance at 550 nm of each well of the titer plate was then measured to determine a degree of growth of Cochliobolus miyabeanus. As a result, the degree of growth in the well treated with each of the above Present compounds was 50% or less relative to the degree of growth in the non-treated well.

Cladosporium carpophilum = assay: Test Example 5 Control Test Against Peach Scab Fungus (96 well titer plate growth); format: cell-based; settings: 1 μL of 150 ppm DMSO solution + 150 μL PDB medium, 18° C., 5 days, absorbance at 550 nm
Description: as §1
Each of the Present compound 79, 80, 81, 89, 92, 93, 96, or 99 was diluted with DMSO to obtain a diluted solution containing 150 ppm of each compound, and 1 μL of the diluted solution was dispensed into a titer plate (96 well), and thereto was then dispensed 150 μL of a potato dextrose broth medium (PDB medium) to which spores of Cladosporium carpophilum were inoculated in advance. This plate was cultured at 18° C. for 5 days, thereby allowing Cladosporium carpophilum to undergo proliferation, and the absorbance at 550 nm of each well of the titer plate was then measured to determine a degree of growth of Cladosporium carpophilum. As a result, the degree of growth in the well treated with each of the above Present compound was 50% or less relative to the degree of growth in the non-treated well.

Phakopsora pachyrhizi [3] = assay: Test Example 11 Control Test Against Soybean Rust (pot test, spraying before inoculation); format: in vivo; settings: 200 ppm foliage spray, soybeans (Kurosengoku), inoculated after 2 to 5 days
Outline: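 Soybeans (cv. Kurosengoku), grown 10–14 days in pots, foliar-sprayed with formulated compound at 200 ppm, inoculated 2–5 days later with Phakopsora pachyrhizi spores. Kept humid 1–2 days at 23 °C day/20 °C night, then greenhouse 12 days; lesion area scored against unsprayed plants.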

Phakopsora pachyrhizi [4] = assay: Test Example 16 Control Test Against Soybean Rust Fungus (spore germination, petri dish); format: cell-based; settings: treatment concentration 10 ppm, 23° C., 1 day
Description: as §1
An agar medium (agar concentration: 1.0%) (3 mL) was placed in a plastic petri dish having a diameter of 3.5 cm, and solidified. Each Present compound was diluted with DMSO in such a way that the resulting diluted solution containing 10000 ppm of the compound, and said solution (1 μL) and an aqueous suspension (1.0×10^4/mL) (999 μL) of spores of Phakopsora pachyrhizi to which spores of Phakopsora pachyrhizi were suspended were mixed, and then the resulting mixture was dispensed into the plastic petri dish. This plastic petri dish was cultured at 23° C. for 1 day, and then germinated spores of Phakopsora pachyrhizi were counted. As a result, when the treatment concentration was 10 ppm, and any one of the Present compound 9, 10, 28, 29, or 32 was used as the test compound to carry out the test, the number of germinated spores in each plastic petri dish using the above each Present compound as the test compound was 50% or less relative to the number of germinated spores in the non-treated plastic petri dish.

Structure (SMILES) | lesion area relative to the lesion area of non-treated leaf disk [1] [%] | number of germinated spores relative to the non-treated well (Phakopsora pachyrhizi [2]) [%] | degree of growth relative to the degree of growth in the non-treated well (Cochliobolus miyabeanus) [%] | degree of growth relative to the degree of growth in the non-treated well (Cladosporium carpophilum) [%] | lesion area relative to the lesion area in the non-treated soybeans (Phakopsora pachyrhizi [3]) [%] | number of germinated spores relative to the non-treated plastic petri dish (Phakopsora pachyrhizi [4]) [%]
O=S(=O)(c1ccco1)n1ccc(-c2ccc(Cl)cc2)n1 [compound 79] | ≤ 30 | ≤ 50 | ≤ 50 | ≤ 50 | ≤ 30 | 
O=S(=O)(c1ccoc1)n1ccc(-c2ccc(F)c(F)c2)n1 [compound 92] | ≤ 30 | ≤ 50 |  | ≤ 50 | ≤ 30 | 
O=S(=O)(c1ccccc1)n1ccc(-c2cc(F)c(Br)c(F)c2)n1 [compound 9] | ≤ 30 |  |  |  | ≤ 30 | ≤ 50
Cc1ccc(S(=O)(=O)n2ccc(-c3ccc(F)cc3)n2)cc1 [compound 29] |  |  |  |  |  | ≤ 50
Cn1cnc(S(=O)(=O)n2ccc(-c3cc(F)c(Br)c(F)c3)n2)c1 [compound 32] | ≤ 30 |  |  |  |  | ≤ 50
O=S(=O)(c1cccc(F)c1)n1ccc(-c2cc(F)c(Br)c(F)c2)n1 [compound 17] | ≤ 30 | ≤ 50 | ≤ 50 |  | ≤ 30 | 
O=S(=O)(c1cccs1)n1ccc(-c2cc(F)c(Br)c(F)c2)n1 [compound 33] | ≤ 30 | ≤ 50 | ≤ 50 |  | ≤ 30 | 
Cc1ccc(-c2ccn(S(=O)(=O)c3ccoc3)n2)cc1 [compound 77] | ≤ 30 | ≤ 50 | ≤ 50 |  | ≤ 30 | 
Cc1ccc(S(=O)(=O)n2ccc(-c3cccc(F)c3)n2)cc1 [compound 28] |  |  |  |  |  | ≤ 50
O=S(=O)(c1ccoc1)n1ccc(-c2ccc(F)cc2)n1 [compound 89] | ≤ 30 | ≤ 50 |  | ≤ 50 | ≤ 30 | 
O=S(=O)(c1cccnc1)n1ccc(-c2ccc(Br)c(F)c2)n1 [compound 53] | ≤ 30 | ≤ 50 | ≤ 50 |  | ≤ 30 | 
Cc1ccc(-c2ccn(S(=O)(=O)c3cccnc3)n2)cc1 [compound 99] | ≤ 30 | ≤ 50 |  | ≤ 50 | ≤ 30 | 
O=S(=O)(c1ccoc1)n1ccc(-c2ccc(Cl)cc2)n1 [compound 80] | ≤ 30 | ≤ 50 | ≤ 50 | ≤ 50 | ≤ 30 | 
O=S(=O)(c1cccs1)n1ccc(-c2ccc3nsnc3c2)n1 [compound 68] | ≤ 30 | ≤ 50 | ≤ 50 |  | ≤ 30 | 
O=S(=O)(c1ccco1)n1ccc(-c2cc(F)c(Br)c(F)c2)n1 [compound 37] | ≤ 30 | ≤ 50 | ≤ 50 |  | ≤ 30 | 
O=S(=O)(c1cccs1)n1ccc(-c2cccc(F)c2)n1 [compound 96] | ≤ 30 | ≤ 50 |  | ≤ 50 | ≤ 30 | 
O=S(=O)(c1cccs1)n1ccc(-c2ccc(C3CC3)cc2)n1 [compound 42] | ≤ 30 | ≤ 50 | ≤ 50 |  | ≤ 30 | 
O=S(=O)(c1cccs1)n1ccc(-c2ccc(F)c(F)c2)n1 [compound 93] | ≤ 30 | ≤ 50 |  | ≤ 50 | ≤ 30 | 
Cc1ccc(-c2ccn(S(=O)(=O)c3cccs3)n2)cc1 [compound 43] | ≤ 30 | ≤ 50 | ≤ 50 |  | ≤ 30 | 
O=S(=O)(c1cccs1)n1ccc(-c2ccc(Cl)cc2)n1 [compound 81] | ≤ 30 | ≤ 50 | ≤ 50 | ≤ 50 | ≤ 30 | 
O=S(=O)(c1cccnc1)n1ccc(-c2cc(F)c(Br)c(F)c2)n1 [compound 10] | ≤ 30 |  |  |  | ≤ 30 | ≤ 50
Cc1ccc(-c2ccn(S(=O)(=O)c3cccs3)n2)cc1F [compound 71] | ≤ 30 | ≤ 50 | ≤ 50 |  | ≤ 30 | 
